Values quoted from earlier work in PubChem BioAssay AID1259409 (Chemical Carcinogenesis Research Information System (CCRIS), 2018).

Tested on: rodent chemically induced tumor inhibition, incidence and multiplicity
Assay: CCRIS tumor inhibitor studies
Conditions: Route [Inhibitor]: ORAL

CCS(=O)(=O)Nc1ncc(C(F)(F)F)cc1NC(=O)C1CCCCC1
tumour outcome (control, treated, inhibition, significance) (Carcinogen: N-NITROSOBIS(2-OXOPROPYL)AMINE [60599-38-4], Dose [Inhibitor]: 200 PPM FOR 16 WK BEGINNING 1 WK POST CHOLECYSTODUOODENOSTOMY AND LIGATION OF DISTAL END OF COMMON DUCT (STUDY DURATION:, Species: HAMSTER, Strain/Sex: SYRIAN/FEMALE, Target Tissue: Type of Lesion: EXTRAHEPATIC BILE DUCT: ADENOCARCINOMA, Dose [Carcinogen]: 10 MG/KG BW 1X/WK FOR 10 WK BEGINNING 1 WK POST CHOLECYSTODUODENOSTOMY AND LIGATION OF DISTAL END OF COMMON DUCT (STUDY, Promoter: NONE): 14/26 (54%), 2/15 (13%), 76%, p<0.05
tumour outcome (control, treated, inhibition, significance) (Carcinogen: N-NITROSOBIS(2-OXOPROPYL)AMINE [60599-38-4], Dose [Inhibitor]: 200 PPM FOR 16 WK BEGINNING 1 WK POST CHOLECYSTODUOODENOSTOMY AND LIGATION OF DISTAL END OF COMMON DUCT (STUDY DURATION:, Species: HAMSTER, Strain/Sex: SYRIAN/FEMALE, Target Tissue: Type of Lesion: GALL BLADDER: ADENOCARCINOMA, Dose [Carcinogen]: 10 MG/KG BW 1X/WK FOR 10 WK BEGINNING 1 WK POST CHOLECYSTODUOODENOSTOMY AND LIGATION OF DISTAL END OF COMMON DUCT (STUDY, Promoter: NONE): 18/26 (69%), 3/15 (20%), 71%, p<0.01
tumour outcome (control, treated, inhibition, significance) (Carcinogen: N-NITROSOBIS(2-OXOPROPYL)AMINE [60599-38-4], Dose [Inhibitor]: 200 PPM FOR 16 WK BEGINNING 1 WK POST CHOLECYSTODUOODENOSTOMY AND LIGATION OF DISTAL END OF COMMON DUCT (STUDY DURATION:, Species: HAMSTER, Strain/Sex: SYRIAN/FEMALE, Target Tissue: Type of Lesion: INTRAHEPATIC BILE DUCT: ADENOCARCINOMA, Dose [Carcinogen]: 10 MG/KG BW 1X/WK FOR 10 WK BEGINNING 1 WK POST CHOLECYSTODUODENOSTOMY AND LIGATION OF DISTAL END OF COMMON DUCT (STUDY, Promoter: NONE): 14/26 (54%), 3/15 (20%), 63%, p<0.05

CCOC(=O)/C=C\C(=O)OCC
tumour outcome (control, treated, inhibition, significance) (Carcinogen: BUTYLATED HYDROXYANISOLE, 25013-16-5, Dose [Inhibitor]: 0, 0.2% IN DIET SIMULTANEOUSLY WITH CARCINOGEN FOR 104 WK (STUDY DURATION: 104 WK), Species: RAT, Strain/Sex: F344/MALE, Target Tissue: Type of Lesion: FORESTOMACH: PAPILLOMA, Dose [Carcinogen]: 2% IN DIET FOR 104 WK, Promoter: NONE USED): 88%, 27%, 69%, p<0.01
tumour outcome (control, treated, inhibition, significance) (Carcinogen: BUTYLATED HYDROXYANISOLE, 25013-16-5, Dose [Inhibitor]: 0, 0.2% IN DIET SIMULTANEOUSLY WITH CARCINOGEN FOR 104 WK (STUDY DURATION: 104 WK), Species: RAT, Strain/Sex: F344/MALE, Target Tissue: Type of Lesion: FORESTOMACH: SQUAMOUS CELL CARCINOMA, Dose [Carcinogen]: 2% IN DIET FOR 104 WK, Promoter: NONE USED): 20%, 5%, 75%, not calculated
tumour outcome (control, treated, inhibition, significance) (Carcinogen: N-BUTYL-N-(4-HYDROXYBUTYL)NITROSAMINE, 3817-11-6, Dose [Inhibitor]: 0, 0.15% IN DRINKING WATER FOR 31 WK BEGINNING POST CARCINOGEN DOSE (STUDY DURATION: 36 WK), Species: RAT, Strain/Sex: F344/MALE, Target Tissue: Type of Lesion: URINARY BLADDER: CARCINOMA, Dose [Carcinogen]: 0.05% IN DRINKING WATER FOR 4 WK, Promoter: BUTYLATED HYDROXYANISOLE, 25013-16-5): 5/15 (33%), 2/15 (13%), 61%, not significant
tumour outcome (control, treated, inhibition, significance) (Carcinogen: N-BUTYL-N-(4-HYDROXYBUTYL)NITROSAMINE, 3817-11-6, Dose [Inhibitor]: 0, 0.15% IN DRINKING WATER FOR 31 WK BEGINNING POST CARCINOGEN DOSE (STUDY DURATION: 36 WK), Species: RAT, Strain/Sex: F344/MALE, Target Tissue: Type of Lesion: URINARY BLADDER: PAPILLOMA, Dose [Carcinogen]: 0.05% IN DRINKING WATER FOR 4 WK, Promoter: BUTYLATED HYDROXYANISOLE, 25013-16-5): 8/15 (53%), 10/15 (67%), -26%, not significant
tumour outcome (control, treated, inhibition, significance) (Carcinogen: N-BUTYL-N-(4-HYDROXYBUTYL)NITROSAMINE, 3817-11-6, Dose [Inhibitor]: 0, 0.15% IN DRINKING WATER FOR 31 WK BEGINNING POST CARCINOGEN DOSE (STUDY DURATION: 36 WK), Species: RAT, Strain/Sex: F344/MALE, Target Tissue: Type of Lesion: URINARY BLADDER: PAPILLOMA, Dose [Carcinogen]: 0.05% IN DRINKING WATER FOR 4 WK, Promoter: SODIUM BICARBONATE, 144-55-8): 9/15 (60%), 9/15 (60%), 0%, not significant
tumour outcome (control, treated, inhibition, significance) (Carcinogen: N-METHYL-N'-NITRO-N-NITROSOGUANIDINE, 70-25-7, Dose [Inhibitor]: 0, 0.2% IN DIET BEGINNING 1 WK POST CARCINOGEN DOSE AND CONTINUING FOR 51 WK (STUDY DURATION: 52 WK), Species: RAT, Strain/Sex: F344/MALE, Target Tissue: Type of Lesion: FORESTOMACH: CARCINOMA, Dose [Carcinogen]: 150 MG/KG ONCE, Promoter: BUTYLATED HYDROXYANISOLE, 25013-16-5): 5/14 (36%), 0/14 (0%), 100%, p<0.05
tumour outcome (control, treated, inhibition, significance) (Carcinogen: N-METHYL-N'-NITRO-N-NITROSOGUANIDINE, 70-25-7, Dose [Inhibitor]: 0, 0.2% IN DIET BEGINNING 1 WK POST CARCINOGEN DOSE AND CONTINUING FOR 51 WK (STUDY DURATION: 52 WK), Species: RAT, Strain/Sex: F344/MALE, Target Tissue: Type of Lesion: FORESTOMACH: PAPILLOMA, Dose [Carcinogen]: 150 MG/KG ONCE, Promoter: BUTYLATED HYDROXYANISOLE, 25013-16-5): 14/14 (100%), 11/14 (79%), 21%, not calculated
tumour outcome (control, treated, inhibition, significance) (Carcinogen: N-METHYL-N'-NITRO-N-NITROSOGUANIDINE, 70-25-7, Dose [Inhibitor]: 0, 0.2% IN DIET BEGINNING 1 WK POST CARCINOGEN DOSE AND CONTINUING FOR 51 WK (STUDY DURATION: 52 WK), Species: RAT, Strain/Sex: F344/MALE, Target Tissue: Type of Lesion: FORESTOMACH: SARCOMA, Dose [Carcinogen]: 150 MG/KG ONCE, Promoter: BUTYLATED HYDROXYANISOLE, 25013-16-5): 1/14 (7%), 4/14 (29%), -314%, not calculated
tumour outcome (control, treated, inhibition, significance) (Carcinogen: N-METHYL-N'-NITRO-N-NITROSOGUANIDINE, 70-25-7, Dose [Inhibitor]: 0, 0.2% IN DIET BEGINNING 1 WK POST CARCINOGEN DOSE AND CONTINUING FOR 51 WK (STUDY DURATION: 52 WK), Species: RAT, Strain/Sex: F344/MALE, Target Tissue: Type of Lesion: FORESTOMACH: SQUAMOUS CELL CARCINOMA, Dose [Carcinogen]: 150 MG/KG ONCE, Promoter: BUTYLATED HYDROXYANISOLE, 25013-16-5): 14/14 (100%), 5/14 (36%), 64%, p<0.001

C[Se+](C)CC(=O)[O-]
tumour outcome (control, treated, inhibition, significance) (Carcinogen: 7,12-DIMETHYLBENZ[A]ANTHRACENE, 57-97-6, Dose [Inhibitor]: 0, 0.000025 MOL/KG DIET BEGINNING 2 WK PRIOR TO CARCINOGEN AND CONTINUED FOR STUDY DURATION (STUDY DURATION: 25 WK), Species: RAT, Strain/Sex: CD-1/FEMALE, Target Tissue: Type of Lesion: MAMMARY GLAND: ADENOCARCINOMA, Dose [Carcinogen]: 10 MG ONCE, Promoter: NONE USED): 20/25 (80%), 11/25 (44%), 45%, p<0.05
